What all share (experiment): Enzyme Inhibition Assay
The target of one assay is Coagulation factor X (Homo sapiens, UniProt P00742). The method, then: (§1) The enzyme activities were determined kinetically as the initial rate of cleavage of a peptide p-nitroanilide. Km for enzyme and substrate was determined using four substrate dilutions. Enzyme was incubated with test compounds for 10 min; the reaction was then started by the addition of the substrate. […] IC50 values for inhibitors were determined from the dose response curve by fitting the data to the Hill equation. Ki,app values were calculated as the IC50/2, with the IC50 value determined at a substrate concentration equal to Km
Coagulation factor X, sequence (P00742 41-179 limits assumed): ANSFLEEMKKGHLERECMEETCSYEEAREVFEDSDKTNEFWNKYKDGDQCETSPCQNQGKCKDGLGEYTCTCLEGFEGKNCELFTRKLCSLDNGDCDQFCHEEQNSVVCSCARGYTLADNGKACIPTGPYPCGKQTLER
Coagulation factor X, sequence (P00742 235-488 limits assumed): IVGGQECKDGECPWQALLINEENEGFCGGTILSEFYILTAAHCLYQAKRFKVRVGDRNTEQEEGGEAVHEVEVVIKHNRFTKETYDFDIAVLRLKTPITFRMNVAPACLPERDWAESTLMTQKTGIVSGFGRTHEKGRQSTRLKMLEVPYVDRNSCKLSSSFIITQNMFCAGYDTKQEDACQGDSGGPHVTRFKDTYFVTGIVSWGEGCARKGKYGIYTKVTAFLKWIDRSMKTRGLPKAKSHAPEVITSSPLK

Another assay concerns the target Prothrombin (Homo sapiens, UniProt P00734). The method, then:
as §1

In another assay the target is T1, Serine protease 1 (Bos taurus, UniProt P00760).
T1 sequence (P00760 whole entry): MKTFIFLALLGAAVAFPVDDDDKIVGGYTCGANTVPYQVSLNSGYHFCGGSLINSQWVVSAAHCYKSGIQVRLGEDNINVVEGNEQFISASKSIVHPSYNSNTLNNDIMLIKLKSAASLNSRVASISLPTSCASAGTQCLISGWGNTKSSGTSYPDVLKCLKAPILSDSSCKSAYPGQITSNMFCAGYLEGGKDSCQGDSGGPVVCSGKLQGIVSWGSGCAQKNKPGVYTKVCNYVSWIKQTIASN
Here is the method:
as §1

As to `CCCN1Cc2sc(C(=O)Nc3ccc(Cl)cc3C(=O)Nc3ccc(Cl)cc3)c(Cl)c2C1` [3-chloro-N-{4-chloro-2-[(4-chlorophenyl)carbamoyl]phenyl}-5-propyl-4H,5H,6H-thieno[2,3-c]pyrrole-2-carboxamide], the Ki at Coagulation factor X turned out to be 0.0022 µM; at Prothrombin, 3.2 µM. `O=C(Nc1ccc(Cl)cc1)c1cc(Cl)ccc1NC(=O)c1scc(CNCCCn2ccnc2)c1Cl` [3-chloro-N-{4-chloro-2-[(4-chlorophenyl)carbamoyl]phenyl}-4-({[3-(1H-imidazol-1-yl)propyl]amino}methyl)thiophene-2-carboxamide] registered a Ki at Serine protease 1 greater than 5 µM. The same measure, in the same setting: to `Cc1cccc2sc(C(=O)Nc3ccc(Cl)cc3C(=O)Nc3ccc(Cl)cc3)c(Cl)c12` [3-chloro-N-{4-chloro-2-[(4-chlorophenyl)carbamoyl]phenyl}-4-methyl-1-benzothiophene-2-carboxamide] belongs greater than 5 µM; to `CS(=O)(=O)Cc1csc(C(=O)Nc2ccc(Cl)cc2C(=O)Nc2ccc(Cl)cc2)c1Cl` [3-chloro-N-{4-chloro-2-[(4-chlorophenyl)carbamoyl]phenyl}-4-(methanesulfonylmethyl)thiophene-2-carboxamide], greater than 5 µM; to `C[S+]([O-])Cc1csc(C(=O)Nc2ccc(Cl)cc2C(=O)Nc2ccc(Cl)cc2)c1Cl` (stereo not given) [3-chloro-N-{4-chloro-2-[(4-chlorophenyl)carbamoyl]phenyl}-4-(methanesulfinylmethyl)thiophene-2-carboxamide], greater than 5 µM. As for `O=C(Nc1ccc(Cl)cc1)c1cc(Cl)ccc1NC(=O)c1scc(Cn2nccn2)c1Cl` [3-chloro-N-{4-chloro-2-[(4-chlorophenyl)carbamoyl]phenyl}-4-(2H-1,2,3-triazol-2-ylmethyl)thiophene-2-carboxamide], on Serine protease 1, the Ki is greater than 5 µM. Turning to `Cc1ccc(NC(=O)c2sc3ccccc3c2Cl)c(C(=O)Nc2ccc(Cl)cc2)c1` [3-chloro-N-{2-[(4-chlorophenyl)carbamoyl]-4-methylphenyl}-1-benzothiophene-2-carboxamide], the inhibitory constant (Ki) on Prothrombin and at Serine protease 1 was greater than 5 µM in each case.

With `CCOC(=O)CN(C)Cc1csc(C(=O)Nc2ccc(Cl)cc2C(=O)Nc2ccc(Cl)cc2)c1Cl` [ethyl 2-({[4-chloro-5-({4-chloro-2-[(4-chlorophenyl)carbamoyl]phenyl}carbamoyl)thiophen-3-yl]methyl}(methyl)amino)acetate], the Ki at Serine protease 1 was greater than 5 µM.

The record behind these values is BindingDB's records for doi:10.1016/j.bmc.2006.12.019 (Berlex, 2007).
